Laboratory results reported in patent publication US20060019907A1, “Guggulsterone: an inhibitor of nuclear factor - kappaB and IkappaBalpha kinase activation and uses thereof” (Research Development Foundation, priority 2004, published 2006).

Experiments:
IKK = assay: Direct inhibition of immunoprecipitated IKK, kinase assay; format: biochemical, human; settings: 50 μM; immune complex treated 30 min at 30° C.
Procedure: IKK Assay: To determine the effect of guggulsterone on TNF-induced IKK activation, IKK was analyzed by a method essentially as described previously (Shishodia et al., 2003). Briefly, IKK complex was precipitated from whole-cell extracts with antibody to IKKα and IKKβ, assayed in kinase assay using GST-IκBα (1-54) as a substrate, and resolved on 10% polyacrylamide gel; the radioactive bands were visualized using a PHOSPHORIMAGER™. To determine the total amounts of IKKα and IKKβ in each sample, 30 μg of the whole-cell extract protein was resolved on a 7.5% polyacrylamide gel and analyzed by Western blot using antibody against IKKα and IKKβ.

[1] = tested on: COX-2, MMP-9, VEGF, cyclin D1, c-myc, cIAP1, xIAP, Bfl-1, BCL-2, TRAF1, cFLIP, survivin; assay: TNF-induced expression of NF-κB regulated gene products, Western blot; format: cell-based, human; settings: H1299, 50 μM, 0.1 nM TNF
Procedure: Western Blot Analysis: To determine the effect of guggulsterone on TNF-dependent IκBα phosphorylation, IκBα degradation, p65 translocation and p65 phosphorylation, cytoplasmic extracts were prepared as previously described (Majumdar et al., 2001) from H1299 (2×10^6/ml) pretreated with 50 μM guggulsterone for 4 h and then exposed to 0.1 nM TNF for various times. Thirty micrograms of cytoplasmic protein was resolved on 10% SDS-PAGE gel, transferred to a nitrocellulose membrane, blocked with 5% non-fat milk, and probed with specific antibody against IκBα, posphorylated IκBα, p65 and phosphorylated p65. To determine the expression of cyclin D1, COX-2, MMP-9, clAP-1, xlAP, TRAF1, Bcl-2, Bfl-1, cFLIP, and survivin, whole-cell extracts were prepared from treated cells (2×10^6 cells in 2 ml medium), 30-50 μg protein was resolved on SDS-PAGE gel and probed by Western blot with specific antibodies as per manufacturer's recommended protocol. The blots were washed, exposed to HRP-conjugated secondary antibodies for 1 hour, and finally detected by ECL reagent (Amersham Pharmacia Biotech.). The bands were quantitated using a Personal Densitometer Scan v1.30 using IMAGEQUANT™ software version 3.3 (Molecular Dynamics).

KBM-5 cells = assay: Cytotoxicity (MTT) assay with TNF and chemotherapeutic drugs; format: cell-based, human; settings: 50 μM guggulsterone, 72 hours
Procedure: Cytotoxicity Assay: Cytotoxicity was assayed by the modified tetrazolium salt 3-(4-5-dimethylthiozol-2-yl)2-5-diphenyl-tetrazolium bromide (MTT) assay (Bharti et al., 2003). Briefly, cells (5000 cells/well) were incubated in the presence or absence of the indicated test sample in a final volume of 0.1 ml for 72 hours at 37° C. Thereafter, 0.025 ml of MTT solution (5 mg/ml in PBS) was added to each well. After a 2 hour incubation at 37° C., 0.1 ml of the extraction buffer (20% SDS, 50% dimethylformamide) was added. After an overnight incubation at 37° C., the optical densities at 570 nm were measured using a 96-well multiscanner autoreader (Dynatech MR5000), with the extraction buffer as blank. The percent cytotoxicity was determined as follows: (1−(A570 of test sample)/(A570 of control sample)×100%.

NF-κB = assay: RANKL-induced NF-κB activation by EMSA in RAW 264.7 cells; format: cell-based, mouse
[2] = tested on: cyclin D1, cdc2, p21, p27, GADD45β, xIAP, Bfl-1/A1, Bcl-2, BclX1, cFLIP, survivin, c-myc, COX2; assay: Western blot of cell cycle, anti-apoptotic, proliferative and metastatic gene products in U937 cells; format: cell-based, human; settings: 10 μM
Procedure: Western blot analysis. Thirty to fifty micrograms of cytoplasmic, nuclear or whole cell protein was resolved on 10% SDS-PAGE gel, transferred to a nitrocellulose membrane, blocked with 5% non-fat milk, and probed with specific antibodies as per manufacturer's recommended protocol. The blots were washed, exposed to HRP-conjugated secondary antibodies for 1 h, and detected by ECL reagent (Amersham Pharmacia Biotechnology, Piscataway, N.J.). The bands were quantitated using a Personal Densitometer Scan v1.30 using Imagequant software version 3.3 (Molecular Dynamics).

U937 cells = assay: Annexin V and TUNEL assays; format: cell-based, human
Procedure: Annexin V Assay. One of the early indicators of apoptosis is the rapid translocation and accumulation of the membrane phospholipid phosphatidylserine from the cell's cytoplasmic interface to the extracellular surface. This loss of membrane asymmetry can be detected using the binding properties of annexin V. To detect apoptosis, annexin V antibody conjugated with the fluorescent dye FITC was used. Briefly, 1×10^6 cells were pretreated with 10 μM guggulsterone for various time points and then subjected to annexin V staining. Cells were washed, stained with FITC-conjugated anti-annexin V antibody, and then analyzed with a flow cytometer (FACSCalibur; BD Biosciences). TUNEL Assay. Apoptosis was also assessed by the terminal deoxynucleotidyl transferase-mediated deoxyuridine triphosphate nick end-labeling (TUNEL) method, which examines DNA strand breaks that occur during apoptosis, using an in situ cell death detection reagent (Roche Molecular Biochemicals, Mannheim, Germany). Assays were performed using 5×10^5 cells that were incubated with 10 μM guggulsterone for 24 h and then fixed with 4% paraformaldehyde, and permeabilized with 0.1% Triton-X 100 in 0.1% sodium citrate. After being washed, the cells were incubated with reaction mixture for 60 min at 37° C. Stained cells were analyzed with a flow cytometer (FACSCalibur).

JNK = JNK kinase assay; format: cell-based, human; settings: U937; 10 μM
Procedure: JNK kinase assay. To determine the effect of guggulsterone on the kinase activity of JNK, JNK complex from whole-cell extracts was precipitated with antibody against JNK1, followed by treatment with protein A/G-Sepharose beads (Pierce, Rockford, Ill.). After 2 h of incubation, the beads were washed with lysis buffer and then assayed in kinase assay mixture containing 50 mM HEPES (pH 7.4), 20 mM MgCl2, 2 mM dithiothreitol, 20 μCi of [γ-^32P]ATP, 10 μM unlabeled ATP, and 2 μg of substrate GST-c-Jun (1-79). The immunocomplex was incubated at 30° C. for 30 min and then boiled with SDS sample buffer for 5 min. Finally, the protein was resolved on 10% SDS-PAGE, the gel was dried, and the radioactive bands were visualized using the PhosphorImager. To determine the total amount of JNK1 in each sample, whole-cell extracts were subjected to Western blot analysis using anti-JNK1 antibody.

SMILES: CC=C1C(=O)C[C@H]2[C@@H]3CCC4=CC(=O)CC[C@]4(C)[C@H]3CC[C@]12C [guggulsterone, 4,17(20)-pregnadiene-3,16-dione]
- phosphorylation of GST IκBα by immunoprecipitated IKK (direct inhibition) (IKK): inhibited the phosphorylation of GST IκBα
- TNF-induced COX-2, MMP-9 and VEGF expression ([1]; 4 h): abolished the TNF-induced expression of these gene products
- TNF-induced cyclin D1 and c-myc expression ([1]; 4 hours): abolished the expression of these gene products
- TNF-induced expression of cIAP1, xIAP, Bfl-1, BCL-2, TRAF1, cFLIP and survivin ([1]; 4 hours): this expression was inhibited
- cytotoxic effects of TNF, paclitaxel and doxorubicin in combination with guggulsterone (KBM-5 cells): enhanced the cytotoxic effects of TNF, paclitaxel and doxorubicin
- concentration of complete inhibition of RANKL-induced NF-κB activation (NF-κB; RAW 264.7, 10 nM RANKL): 50 µM
- inhibition of RANKL-induced NF-κB, dose dependence (NF-κB; RAW 264.7, 10 nM RANKL): increased with dose
- RANKL-induced NF-κB activation (EMSA) (NF-κB; RAW 264.7, 50 μM, 10 nM RANKL): completely abrogated the RANKL-induced NF-κB activation
- RANKL-induced NF-κB activation (Example 1) (NF-κB; osteoclast precursor cells): inhibits RANKL-induced NF-κB activation
- gene products involved in antiapoptosis (xIAP, Bfl-1/A1, Bcl-2, BclX1, cFLIP, survivin), proliferation (c-myc) and metastasis (COX2) [2]: inhibited the gene products involved in antiapoptosis
- levels of cyclin D1 and cdc2 [2]: decrease in the levels of cyclin D1 and cdc2
- levels of p21, p27 and GADD45β [2]: increase in the levels of cyclin dependent kinase inhibitor p21, p27
- number of Annexin V and TUNEL positive cells (U937 cells): increased the number of Annexin V and TUNEL positive cells
- JNK activation (JNK): activation of JNK
